Reference: patent publication US12076305B2, “Compositions comprising a conjugate of quinic acid with caffeic acid, cosmetic and therapeutic uses” (CALSCIENCE INTERNATIONAL LTD, priority 2013, dated 2024)

Columns and labels:
[1] = tested on: Human Foreskin Fibroblasts (HFFs); test: WST-1 Cell Proliferation Assay in HFFs; assay type: cell-based; details: 1/1000 and 2/1000 dilutions
From the text: The WST-1 Cell Proliferation Assay provides a sensitive and accurate assay for cell proliferation and cytotoxicity (cell viability). The WST assay is based on the cleavage of the tetrazolium salt WST-1 to formazan by cellular mitochondrial dehydrogenases. Expansion in the number of viable cells results in an increase in the overall activity of the mitochondrial dehydrogenases in the sample. The augmentation in enzyme activity results in an increase in the amount of formazan dye formed. The formazan dye produced by viable cells was quantified by a multi-well spectrophotometer by measuring the absorbance of the dye solution at 440 nm. The compound provided was tested in the WST assay over a range of dilutions. […] The results of the assay show the standard deviation (SD) for 1,5-DCQA (2066) and the control, and the mean values for 1,5-DCQA (2066) and the control.

p16 = test: Taqman Real Time-PCR expression of p16 in HFFs with/without H2O2 stress-induced premature senescence; assay type: cell-based, Human; details: for ddct (1.275) (P16) / Relative Expression of P16 / dCt (P16) / P16 (Ct): 1/1000 dilution; for dCt (P16): vs HPRT
Method: (§1) The following results shown in FIGS. 2 to 7 relate to the analysis of Senescence tests on compound 2066 (1,5-dicaffeoylquinic acid or 1,5-DCQA). The experiments were conducted using Human Foreskin Fibroblasts (HFFs).
(§2) In the following experiments, HFFs were challenged for a period of two hours with 150 μM hydrogen peroxide (H2O2), to stimulate premature senescence in the presence and absence of 1,5-Dicaffeoylquinic acid (1/1000 dilution), and subsequently assayed by Taqman Real Time-PCR for the expression of key senescence associated genes.
(§3) The results shown in Table 2 and FIGS. 2 to 7 were generated using the polymerase chain reaction (PCR), wherein the dCt and ddCT values are results used in statistical analysis. The abbreviation dCt relates to “delta cycle threshold” and the abbreviation ddCt relates to “delta delta cycle threshold”. In these experiments, HPRT (hypoxanthine phosphoribosyltransferase, a protein from the HPRT-1 gene) was used as a control.

p21 = test: Taqman Real Time-PCR expression of p21 in HFFs with/without H2O2 stress; assay type: cell-based, Human; details: for ddct (−3.761) (P21) / Relative Expression of P21 / dCt (P21) / P21 (Ct): 1/1000 dilution; for dCt (P21): vs HPRT
Method: as §1, §2, §3

Sirtuin 2 (SIRT2) = test: Taqman Real Time-PCR expression of Sirtuin 2 in HFFs with/without H2O2 stress; assay type: cell-based, Human; details: for ddct (−0.016) (SIRT2) / Relative Expression of SIRT2 / dCt (SIRT2) / SIRT2 (Ct): 1/1000 dilution; for dCt (SIRT2): vs HPRT
Method: as §1, §2
(§4) These genes are involved in cell cycle regulation and mitochondrial stress responses. Challenge with a near lethal level of oxidant stress typically induces an increase in SIRT2 and decrease in SIRT3 expression. […] This is indicative of each having a potential for stimulating cell proliferation in the absence of oxidant challenge.
as §3

Sirtuin 3 (SIRT3) = test: Taqman Real Time-PCR expression of Sirtuin 3 in HFFs with/without H2O2 stress; assay type: cell-based, Human; details: for ddct (−2.079) (SIRT3) / Relative Expression of SIRT3 / dCt (SIRT3) / SIRT3 (Ct): 1/1000 dilution; for dCt (SIRT3): vs HPRT
Method: as §1, §2, §4, §3

XRCC5 = test: Taqman Real Time-PCR expression of XRCC5 in HFFs with/without H2O2 stress; assay type: cell-based, Human; details: for ddct (−1.292) (XRCC5) / Relative Expression of XRCC5 / dCt (XRCC5) / XRCC5 (Ct): 1/1000 dilution; for dCt (XRCC5): vs HPRT
Method: as §1, §2
XRCC5 is a double strand break repair protein.
as §3

hPOT1 = test: Taqman Real Time-PCR expression of hPOT1 in HFFs with/without H2O2 stress; assay type: cell-based, Human; details: for ddct (−1.835) (hPOT1) / Relative Expression of hPOT1 / dct (hPOT1) / HPOT1 (Ct): 1/1000 dilution; for dct (hPOT1): vs HPRT
Method: as §1, §2
These findings are supported by an analysis of the Protection of Telomeres gene (POT 1).
as §3

p65 = test: Western blot of LNCaP cell extracts probed for p65; assay type: cell-based; details: LNCaP cells; 24 hours; 0.1, 1, 3, 10, 30, 100 μM
Method: (§5) Lanes 1 and 2 of the Western blot show the expression levels Hela control lysates comprising TNF-alpha (TNFα), in stimulated and unstimulated conditions. Lanes 3 and 4 show the results of LNCaP cell extracts, in stimulated and unstimulated conditions. In this case, the vehicle used is ethanol. Lanes 5 to 10 show the results of LNCaP cell extracts incubated for 24 hours in 0.1, 1, 3, 10, 30, 100 μM of 1,5-DCQA, respectively. Tubulin (50kD) was used as a loading control.

Pp65 (ser 536) = test: Western blot of LNCaP cell extracts probed for Pp65 (ser 536); assay type: cell-based; details: LNCaP cells; 24 hours; 0.1, 1, 3, 10, 30, 100 μM
Method: as §5

MMP-9 = test: Western blot of LNCaP cell extracts probed for MMP-9; assay type: cell-based; details: LNCaP cells; 24 hours; at 0.1 μM to 100 μM
Method: as §5

[2] = & stress (150 μM H2O2, two hours)
[3] = HFFs, & stress (150 μM H2O2, two hours)

Structure (SMILES): O=C(/C=C/c1ccc(O)c(O)c1)O[C@@H]1C[C@](OC(=O)/C=C/c2ccc(O)c(O)c2)(C(=O)O)C[C@@H](O)[C@H]1O [1,5-DCQA, 1,5-dicaffeoylquinic acid]
- cell viability (WST-1) [1]: beneficial to cell viability
- protection of p16 expression from oxidant challenge (p16; 150 μM H2O2): excellent protection from oxidant challenge
- ddct (1.275) (P16) (p16; & stress (150 μM H2O2)): −0.519
- Relative Expression of P16 (p16; & stress (150 μM H2O2), media = 1.000, stress alone 3.151): 1.433
- dCt (P16) (p16; & stress (150 μM H2O2)): 0.756
- P16 (Ct) (p16; [2]): 28.09
- P16 (Ct) (p16; no stress): 27.66
- ddct (1.275) (P16) (p16; no stress): 0.050
- Relative Expression of P16 (p16; no stress, media = 1.000): 0.966
- dCt (P16) (p16; no stress): 1.325
- effect on p16 expression in untreated cells (p16; no H2O2): no stress effect
- p21 expression levels following stress (p21; 150 μM H2O2): substantially unchanged
- ddct (−3.761) (P21) (p21; & stress (150 μM H2O2)): −2.263
- Relative Expression of P21 (p21; & stress (150 μM H2O2), media = 1.000, stress alone 4.519): 4.801
- dCt (P21) (p21; & stress (150 μM H2O2)): −6.024
- P21 (Ct) (p21; [2]): 21.31
- P21 (Ct) (p21; no stress): 22.4
- ddct (−3.761) (P21) (p21; no stress): −0.167
- Relative Expression of P21 (p21; no stress, media = 1.000): 1.122
- dCt (P21) (p21; no stress): −3.928
- ddct (−0.016) (SIRT2) (Sirtuin 2 (SIRT2); HFFs, & stress (150 μM H2O2)): 0.371
- Relative Expression of SIRT2 (Sirtuin 2 (SIRT2); HFFs, & stress (150 μM H2O2), media = 1.000, stress alone 0.762): 0.773
- dCt (SIRT2) (Sirtuin 2 (SIRT2); HFFs, & stress (150 μM H2O2)): 0.387
- SIRT2 (Ct) (Sirtuin 2 (SIRT2); [3]): 27.72
- SIRT2 (Ct) (Sirtuin 2 (SIRT2); HFFs, no stress): 27.16
- ddct (−0.016) (SIRT2) (Sirtuin 2 (SIRT2); HFFs, no stress): 0.817
- Relative Expression of SIRT2 (Sirtuin 2 (SIRT2); HFFs, no stress, media = 1.000): 0.568
- dCt (SIRT2) (Sirtuin 2 (SIRT2); HFFs, no stress): 0.833
- change in SIRT2 expression (Sirtuin 2 (SIRT2); HFFs, without stress): significant decrease
- down regulation of SIRT2 expression (Sirtuin 2 (SIRT2); normal fibroblasts): approximately 52%
- ddct (−2.079) (SIRT3) (Sirtuin 3 (SIRT3); HFFs, & stress (150 μM H2O2)): −0.120
- Relative Expression of SIRT3 (Sirtuin 3 (SIRT3); HFFs, & stress (150 μM H2O2), media = 1.000, stress alone 0.794): 1.086
- dCt (SIRT3) (Sirtuin 3 (SIRT3); HFFs, & stress (150 μM H2O2)): 1.959
- SIRT3 (Ct) (Sirtuin 3 (SIRT3); [3]): 29.3
- SIRT3 (Ct) (Sirtuin 3 (SIRT3); HFFs, no stress): 28.56
- ddct (−2.079) (SIRT3) (Sirtuin 3 (SIRT3); HFFs, no stress): 0.148
- Relative Expression of SIRT3 (Sirtuin 3 (SIRT3); HFFs, no stress, media = 1.000): 0.903
- dCt (SIRT3) (Sirtuin 3 (SIRT3); HFFs, no stress): 2.227
- change in SIRT3 expression (Sirtuin 3 (SIRT3); HFFs, following oxidant challenge): increase
- up regulation of SIRT3 expression (Sirtuin 3 (SIRT3); senescent fibroblasts): approximately 36%
- induction of DNA breaks (from XRCC5 expression) (XRCC5): does not induce DNA breaks
- ddct (−1.292) (XRCC5) (XRCC5; & stress (150 μM H2O2)): −0.141
- Relative Expression of XRCC5 (XRCC5; & stress (150 μM H2O2), media = 1.000, stress alone 2.237): 1.103
- dCt (XRCC5) (XRCC5; & stress (150 μM H2O2)): −1.433
- XRCC5 (Ct) (XRCC5; [2]): 25.9
- XRCC5 (Ct) (XRCC5; no stress): 25.48
- ddct (−1.292) (XRCC5) (XRCC5; no stress): 0.444
- Relative Expression of XRCC5 (XRCC5; no stress, media = 1.000): 0.735
- dCt (XRCC5) (XRCC5; no stress): −0.848
- expression of XRCC5 in comparison with the control data set (XRCC5; with and without 150 μM H2O2): substantially unaltered
- effect on hPOT1 expression against oxidant challenge (hPOT1; 150 μM H2O2): protective effect
- ddct (−1.835) (hPOT1) (hPOT1; & stress (150 μM H2O2)): 0.405
- Relative Expression of hPOT1 (hPOT1; & stress (150 μM H2O2), media = 1.000, stress alone 1.625): 0.755
- dct (hPOT1) (hPOT1; & stress (150 μM H2O2)): 2.240
- HPOT1 (Ct) (hPOT1; [2]): 29.5758
- HPOT1 (Ct) (hPOT1; no stress): 29.47
- ddct (−1.835) (hPOT1) (hPOT1; no stress): 1.306
- Relative Expression of hPOT1 (hPOT1; no stress, media = 1.000): 0.404
- dct (hPOT1) (hPOT1; no stress): 3.141
- inhibition of the expression of p65 (p65): does not inhibit
- inhibition of the phosphorylation of p65 (Pp65 (ser 536)): does inhibit
- inhibition of MMP-9 (MMP-9): clearly demonstrated
